Data reported in US7893068B2, “Physiologically active substances” (Mercian Corporation, priority 2002, dated 2011).
Where two headings read alike, the source gives them in different places.

Key:
VEGF promoter = assay: VEGF transcription-suppressing activity (VEGF promoter-PLAP reporter, U251/1-8 cells, hypoxia); assay type: cell-based; settings: Homo sapiens, read-out: VEGF transcription-suppressing activities (IC50: nM)
Source text: In order to prepare reporter system reflecting transcription from VEGF promoter, VEGF promoter sequence was cloned, and inserted in secretory alkaline phosphatase (PLAP) vector to construct reporter vector.
In order to obtain the promoter region of human VEGF, VEGF genomic DNA was cloned from phage library. PCR primers having the sequences described in Sequence Numbers 1 and 2 were designed based on VEGF cDNA (GenBank accession number: X62568) and a fragment having about 340 bp was obtained by carrying out PCR. Human genomic phage library (Human genomic library, Clontech Co.) was screened using this as a probe to obtain VEGF genomic DNA. The DNA was digested by EcoRI, and the resultant fragments were inserted in the EcoRI site of pUC18. Finally, pUC18-VEGFA containing about 5.4 kb of VEGF 5′ flanking region was obtained. The pUC18-VEGFA was digested by KpnI/NheI, VEGF promoter region of about 2.3 kb obtained was inserted in the multi cloning site KpnI/NheI of secretory alkaline phosphatase (PLAP) vector (Goto et al, Mol. Pharmacol., 49, 860-873, 1996), and thus, VEGF-PLAP vector was constructed.
The above-mentioned VEGF-PLAP vector was transfected in the U251 cell cultured in the DULBECCO-modified eagle medium (DMEM; manufactured by SIGMA Co., Ltd.) containing 10% fetal calf serum, and the cells were cultured in the presence of 1 mg/mL G418 (Merck Co.) to establish G418 resistant stable clone (U251/1-8 cell).
It was confirmed that U251/1-8 cell secreted PLAP under hypoxic condition (2% O2 incubator) in the same manner as in the report (Cell. Mol. Biol. Res. 40, 35-39, 1994) and was a reporter system reflecting the transcription from VEGF promoter. The screening of the compound suppressing VEGF production which was induced by hypoxic stimulation was carried out below using the clone.
In order to remove the influence of alkaline phosphates in serum, U251/1-8 cells were rinsed twice with the adequate amount of PBS (Phosphate buffered saline), diluted in the DMEM medium containing 10% of serum in which alkaline phosphates was inactivated by the treatment of 65° C. for 20 min., and dispensed in 96-well plates by 4×10^4 cells/180 μL.
After culturing at 37° C. overnight in a CO2 incubator (5% CO2), 20 μL of the above-mentioned incubation solution containing the test compound diluted with 3-fold succession was added, and then they were incubated in a hypoxic (2% […]) incubator for 18 hours. With respect to the PLAP activity in the culture supernatants, 10 μL of the supernatants was added to 50 μL of 0.28 M Na2CO3—NaHCO3 buffer solution (pH 10.0, 8.0 mM MgSO4), and finally 50 μL of alkaline phosphatase substrate (LUMISTEIN, Genomescience Co.) was added. After reacting for one hour, the alkaline phosphatase activity of the PLAP was measured by detecting the chemical luminescence by a micro plate reader (Perkin-Elmer Co.). The PLAP activity under normoxia was set as 0%, the PLAP activity of cell which was treated under hypoxia was set as 100%, and the concentration suppressing the PLAP activity by 50% was set as the IC50 value of PLAP. The IC50 values of 11107D derivatives shown in Examples were measured, and the IC50 values of representative 11107D derivatives are shown in Table 1.

[1] = system: WiDr human colon cancer cells; assay: Growth inhibitory activities on WiDr human colon cancer cells (MTT); assay type: cell-based; settings: 72 h, three days incubation
Protocol: WiDr human colon cancer cells cultured in DULBECCO-modified eagle medium (DMEM; manufactured by SIGMA Co., Ltd.) containing 10% fetal calf serum, penicillin (100 unit/mL) and streptomycin (100 μg/mL) were dispensed in 96-well plates by 2×10^3 cells/well. After culturing overnight in a CO2 incubator, 20 μL of the above-mentioned incubation solution containing the test compound diluted with 3-fold succession was added, followed by incubation. After three days, 50 μL of 3.3 mg/mL MTT solution was added, followed by culturing for further one hour. Then, formazan formed by the reduction by the action of living cells was extracted with 100 μL of DMSO, the absorbance (A540/A660) was determined and was set as the index of the number of living cells.
The concentrations of the compounds of the formula (I) at which the growth of WiDr human colon cancer cells are inhibited 50% were determined.

[2] = system: WiDr human colon cancer cells; assay: Solid tumor growth inhibitory activities, WiDr human colon tumor model in nude mice; assay type: in vivo; settings: Mus musculus, 360 h
Source text: (§1) In order to study solid tumor growth inhibitory activities of the compounds of the formula (I) in vivo, WiDr human colon cancer cells were implanted subcutaneously into the flanks of nude mice. […]. The animals were grouped so that the average of the volumes of the respective groups became uniform, when it reached about 100 mm^3. Control group was made up of 10 mice and 11107D-administering groups were made up of 5 mice. The derivatives were administered for the administering groups for 5 consecutive days by intravenous injection so as to be any of 0.625 mg, 1.25 mg, 2.5 mg, 5 mg and 10 mg/kg/day, and a vehicle was administered to the control group. The tumor volumes on Day 15 were measured, and relative tumor volume ratios (T/C %) were determined setting the tumor volume of the control group as 100%. The body weights on Day 1, Day 5, Day 8, Day 12 and Day 15 (or 16) were measured, and relative body weight variations were determined setting the body weight on Day 1 as 100%. The relative body weight ratios on the day where the body weight reached the minimum were defined as the minimum relative weight ratios and are shown in Table 3.

[3] = Body weight loss (acute toxicity) in the WiDr tumor model; assay type: in vivo, nude mice; settings: intravenous 5 consecutive days, body weight relative to Day 1
Source text: as §1

[4] = Stability in an aqueous solution (HPLC residual ratio); settings: for Peak area (mAU × sec) after 24 hours / The residual ratios (%): Britton-Robinson's buffer pH 7, 25° C., 24 hours; for Peak area (mAU × sec) initial: Britton-Robinson's buffer pH 7, before incubation
Protocol: The compounds of the formula (I) were dissolved in DMSO in concentrations of 10 to 20 mM, and these were diluted about 500 folds with Britton-Robinson's buffer solution of pH 7. Each of the solutions as sample solutions was incubated at 25° C. for 24 hours.
The sample solutions were analyzed by high performance liquid chromatography before and after incubation, and the residual ratios of the tested substances in the sample solutions after incubation were determined from the peak areas of the obtained chromatograms.

[5] = iv, read-out: Growth inhibitory activities in the WiDr human solid tumor model (T/C %)

Work on CCC(O)C(C)C1OC1CC(C)(O)/C=C/C=C(\C)C1OC(=O)CC(O)CCC(C)(O)C(OC(=O)N(C)CCN(C)C)/C=C/C1C (stereo not drawn) [Compound 6, (8E,12E,14E)-7-(N-(2-(N′,N′-Dimethylamino)ethyl)-N-methylcarbamoyloxy)-3,6,16,21-tetrahydroxy-6,10,12,16,20-pentamethyl-18,19-epoxytricosa-8,12,14-trien-11-olide] yielded an IC50 (VEGF promoter; U-251, 18 h) of 32 nM, an IC50 [1] of 12.5 nM and a response vs control in vivo at 1.25 mg/kg [2, 5] of 35%. For the same compound, the “the minimum relative weight ratios” value ([3]; Dose 1.25 mg/kg) was 0.81.
CCC(O)C(C)C1OC1CC(C)(O)/C=C/C=C(\C)C1OC(=O)CC(O)CCC(C)(O)C(OC(=O)N2CCCN(C)CC2)/C=C/C1C (stereo not drawn) [Compound 9, (8E,12E,14E)-3,6,16,21-Tetrahydroxy-6,10,12,16,20-pentamethyl-7-((4-methylhomopiperazin-1-yl)carbonyl)oxy-18,19-epoxytricosa-8,12,14-trien-11-olide] gave an IC50 (VEGF promoter; U-251, 18 h) of 12.9 nM, an IC50 [1] of 5.5 nM and a response vs control in vivo at 5 mg/kg [2, 5] of 10%. For the same compound, the “the minimum relative weight ratios” value ([3]; Dose 5.0 mg/kg) was 0.86, the “Peak area (mAU × sec) after 24 hours” value [4] was 5476 mAU × sec and the “The residual ratios (%)” value [4] was 96.2%. The “Peak area (mAU × sec) initial” value [4] was 5690 mAU × sec.
In the case of CCCCN1CCN(C(=O)OC2/C=C/C(C)C(/C(C)=C/C=C/C(C)(O)CC3OC3C(C)C(O)CC)OC(=O)CC(O)CCC2(C)O)CC1 (stereo not drawn) [Compound 16, (8E,12E,14E)-7-((4-Butylpiperazin-1-yl)carbonyl)oxy-3,6,16,21-tetrahydroxy-6,10,12,16,20-pentamethyl-18,19-epoxytricosa-8,12,14-trien-11-olide], the IC50 (VEGF promoter; U-251, 18 h) is reported as 3.1 nM, the IC50 [1] is reported as 2 nM and the response vs control in vivo at 2.5 mg/kg [2, 5] is reported as 28%. For the same compound, the “the minimum relative weight ratios” value ([3]; Dose 2.5 mg/kg) was 0.90.
Work on CCC(O)C(C)C1OC1CC(C)(O)/C=C/C=C(\C)C1OC(=O)CC(O)CCC(C)(O)C(OC(=O)N2CCN(CC)CC2)/C=C/C1C (stereo not drawn) [Compound 21, (8E,12E,14E)-7-((4-Ethylpiperazin-1-yl)carbonyl)oxy-3,6,16,21-tetrahydroxy-6,10,12,16,20-pentamethyl-18,19-epoxytricosa-8,12,14-trien-11-olide] yielded an IC50 (VEGF promoter; U-251, 18 h) of 6.1 nM, an IC50 [1] of 3.2 nM and a response vs control in vivo at 2.5 mg/kg [2, 5] of 28%. For the same compound, the “the minimum relative weight ratios” value ([3]; Dose 2.5 mg/kg) was 0.80.
Work on CCC(O)C(C)C1OC1CC(C)(O)/C=C/C=C(\C)C1OC(=O)CC(O)CCC(C)(O)C(OC(=O)N2CCC(N3CCCCC3)CC2)/C=C/C1C (stereo not drawn) [Compound 22, (8E,12E,14E)-3,6,16,21-Tetrahydroxy-6,10,12,16,20-pentamethyl-7-((4-(piperidin-1-yl)piperidin-1-yl)carbonyl)oxy-18,19-epoxytricosa-8,12,14-trien-11-olide] yielded an IC50 (VEGF promoter; U-251, 18 h) of 25.6 nM, an IC50 [1] of 14.6 nM and a response vs control in vivo at 5 mg/kg [2, 5] of 39%. For the same compound, the “the minimum relative weight ratios” value ([3]; Dose 5.0 mg/kg) was 0.74, the “Peak area (mAU × sec) after 24 hours” value [4] was 4514 mAU × sec and the “The residual ratios (%)” value [4] was 95.8%. The “Peak area (mAU × sec) initial” value [4] was 4713 mAU × sec.
Compound CCC(O)C(C)C1OC1CC(C)(O)/C=C/C=C(\C)C1OC(=O)CC(O)CCC(C)(O)C(OC(=O)N2CCN(C3CCCCC3)CC2)/C=C/C1C (stereo not drawn) [Compound 26, (8E,12E,14E)-7-((4-Cyclohexylpiperazin-1-yl)carbonyl)oxy-3,6,16,21-tetrahydroxy-6,10,12,16,20-pentamethyl-18,19-epoxytricosa-8,12,14-trien-11-olide] has an IC50 (VEGF promoter; U-251, 18 h) of 2.8 nM, an IC50 [1] of 1.6 nM and a response vs control in vivo at 2.5 mg/kg [2, 5] of 42%. For the same compound, the “the minimum relative weight ratios” value ([3]; Dose 2.5 mg/kg) was 0.93.
Compound CCC(O)C(C)C1OC1CC(C)(O)/C=C/C=C(\C)C1OC(=O)CC(O)CCC(C)(O)C(OC(=O)N2CCN(C(C)C)CC2)/C=C/C1C (stereo not drawn) [Compound 44, (8E,12E,14E)-3,6,16,21-Tetrahydroxy-7-((4-isopropylpiperazin-1-yl)carbonyl)oxy-6,10,12,16,20-pentamethyl-18,19-epoxytricosa-8,12,14-trien-11-olide] has an IC50 (VEGF promoter; U-251, 18 h) of 3.9 nM, an IC50 [1] of 2.1 nM and a response vs control in vivo at 5 mg/kg [2, 5] of 19%. For the same compound, the “the minimum relative weight ratios” value ([3]; Dose 5.0 mg/kg) was 0.89, the “Peak area (mAU × sec) after 24 hours” value [4] was 3820 mAU × sec and the “The residual ratios (%)” value [4] was 94.8%. The “Peak area (mAU × sec) initial” value [4] was 4031 mAU × sec.
CCC(O)C(C)C1OC1CC(C)(O)/C=C/C=C(\C)C1OC(=O)CC(O)CCC(C)(O)C(OC(=O)N2CCN(C3CCCCCC3)CC2)/C=C/C1C (stereo not drawn) [Compound 45, (8E,12E,14E)-7-((4-Cycloheptylpiperazin-1-yl)carbonyl)oxy-3,6,16,21-tetrahydroxy-6,10,12,16,20-pentamethyl-18,19-epoxytricosa-8,12,14-trien-11-olide] gave an IC50 (VEGF promoter; U-251, U251/1-8 cells, hypoxic incubator 18 hours, PLAP activity) of 1.9 nM, an IC50 [1] of 0.7 nM and a response vs control in vivo at 5 mg/kg ([2]; Dose 5.0 mg/kg, intravenous injection 5 consecutive days, tumor volume Day 15, read-out: Growth inhibitory activities in the WiDr human solid tumor model (T/C %)) of 20%. For the same compound, the “the minimum relative weight ratios” value ([3]; Dose 5.0 mg/kg) was 0.90, the “Peak area (mAU × sec) after 24 hours” value [4] was 5024 mAU × sec and the “The residual ratios (%)” value [4] was 95.0%. For the same compound, the “Peak area (mAU × sec) initial” value [4] was 5291 mAU × sec.
In the case of CCC(O)C(C)C1OC1CC(C)(O)/C=C/C=C(\C)C1OC(=O)CC(O)CCC(C)(O)C(OC(=O)N(C)CCN(CC)CC)/C=C/C1C (stereo not drawn) [Compound 75, (8E,12E,14E)-7-(N-(2-(N′,N′-Diethylamino)ethyl)-N-methylcarbamoyloxy)-3,6,16,21-tetrahydroxy-6,10,12,16,20-pentamethyl-18,19-epoxytricosa-8,12,14-trien-11-olide], the IC50 (VEGF promoter; U-251, 18 h) is reported as 9.1 nM, the IC50 [1] is reported as 4.1 nM and the response vs control in vivo at 5 mg/kg [2, 5] is reported as 17%. The “the minimum relative weight ratios” value ([3]; Dose 5.0 mg/kg) was 0.82, the “Peak area (mAU × sec) after 24 hours” value [4] was 2478 mAU × sec and the “The residual ratios (%)” value [4] was 95.5%. For the same compound, the “Peak area (mAU × sec) initial” value [4] was 2594 mAU × sec.
